Reference: patent publication US20230295113A1, “NLRP3 MODULATORS” (ZOMAGEN BIOSCIENCES LTD, priority 2022, published 2023)

Tested on: IL-1b
Assay: Human Monocyte IL-1b Assay
Type: cell-based
Conditions: Homo sapiens, Monocyte, fresh human whole blood; compound 0.5 h, 100 ng/mL LPS 3.5 h at 37° C., 5 mM ATP 45 min; IL-1b in supernatant by ELISA
Procedure: Example 46: Human Monocyte IL-1b Assay
Serially diluted testing compounds were incubated with […] of fresh human whole blood for 0.5 hours. Cells were primed with 100 ng/mL lipopolysaccharide (LPS) for 3.5 hours at 37° C. followed by stimulation with 5 mM ATP for an additional 45 minutes. The concentration of IL-1b concentration in the supernatant was determined with commercially available ELISA kits. Negative controls are wells without stimulation, while positive controls are wells with stimulation but only DMSO without compounds added. After background subtraction, compound treatment wells were then normalized to the positive controls for IC50 calculations.

Row | SMILES | IC50 [nM]
1 | Cc1c(-c2ccc(C(F)(F)F)cc2O)nnc(C(O)C2CCCN(C)C2)c1C (centres unmarked) [Compound 1, 2-(6-(hydroxy(1-methylpiperidin-3-yl)methyl)-4,5-dimethylpyridazin-3-yl)-5-(trifluoromethyl)phenol] | 500 to 3000
2 | Cc1c(C(=O)C2CCCN(C)C2)nnc(-c2ccc(C(F)(F)F)cc2O)c1C (centres unmarked) [Compound 2, (6-(2-hydroxy-4-(trifluoromethyl)phenyl)-4,5-dimethylpyridazin-3-yl)(1-methylpiperidin-3-yl)methanone] | 500 to 3000
3 | Cc1c(-c2ccc(C(F)(F)F)cc2O)nnc(C(F)c2cccnc2)c1C (centres unmarked) [Compound 4, 2-(6-(fluoro(pyridin-3-yl)methyl)-4,5-dimethylpyridazin-3-yl)-5-(trifluoromethyl)phenol] | 3000 to 10000
4 | Cc1cc(C(=O)C2CCCN(C)C2)nnc1-c1ccc(C(F)(F)F)cc1O (centres unmarked) [Compound 14, (6-(2-hydroxy-4-(trifluoromethyl)phenyl)-5-methylpyridazin-3-yl)(1-methylpiperidin-3-yl)methanone] | < 500
5 | Cc1cc(C(=NO)C2CCCN(C)C2)nnc1-c1ccc(C(F)(F)F)cc1O (centres unmarked) [Compound 16, (6-(2-hydroxy-4-(trifluoromethyl)phenyl)-5-methylpyridazin-3-yl)(1-methylpiperidin-3-yl)methanone oxime] | < 500
6 | Cc1cc([C@@H](O)[C@@H]2CCCN(C)C2)nnc1-c1ccc(C(F)(F)F)cc1O [Compound 17A, 2-(6-((S)-hydroxy((R)-1-methylpiperidin-3-yl)methyl)-4-methylpyridazin-3-yl)-5-(trifluoromethyl)phenol] | < 500
7 | Cc1cc([C@H](O)[C@@H]2CCCN(C)C2)nnc1-c1ccc(C(F)(F)F)cc1O [Compound 17B, 2-(6-((R)-hydroxy((R)-1-methylpiperidin-3-yl)methyl)-4-methylpyridazin-3-yl)-5-(trifluoromethyl)phenol] | < 500
8 | Cc1cc([C@@H](O)[C@H]2CCCN(C)C2)nnc1-c1ccc(C(F)(F)F)cc1O [Compound 17D, 2-(6-((S)-hydroxy((S)-1-methylpiperidin-3-yl)methyl)-4-methylpyridazin-3-yl)-5-(trifluoromethyl)phenol] | 500 to 3000
9 | Cc1cc(C(F)(F)F)cc(O)c1-c1ccc(C(O)C2CCCN(C)C2)nn1 (centres unmarked) [Compound 20, 2-(6-(hydroxy(1-methylpiperidin-3-yl)methyl)pyridazin-3-yl)-3-methyl-5-(trifluoromethyl)phenol] | < 500
10 | CN1CCC(=O)C(C(O)c2ccc(-c3ccc(C(F)(F)F)cc3O)nn2)C1 (centres unmarked) [Compound 23, 3-(hydroxy(6-(2-hydroxy-4-(trifluoromethyl)phenyl)pyridazin-3-yl)methyl)-1-methylpiperidin-4-one] | 3000 to 10000
11 | COc1cc(C(F)(F)F)ccc1-c1nnc([C@H](O)[C@@H]2CCCN(C)C2)cc1C [Compound 24, (R)-(6-(2-methoxy-4-(trifluoromethyl)phenyl)-5-methylpyridazin-3-yl)((R)-1-methylpiperidin-3-yl)methanol] | < 500
12 | Cc1cc(C(O)[C@@H]2CCN(C)C2)nnc1-c1ccc(C(F)(F)F)cc1O (stereo partly drawn) [Compound 26, 2-(6-(hydroxy((R)-1-methylpyrrolidin-3-yl)methyl)-4-methylpyridazin-3-yl)-5-(trifluoromethyl)phenol] | < 500
13 | Cc1cc([C@H](O)[C@]2(C)CCCN(C)C2)nnc1-c1ccc(C(F)(F)F)cc1O [Compound 27A, 2-(6-((R)-((R)-1,3-dimethylpiperidin-3-yl)(hydroxy)methyl)-4-methylpyridazin-3-yl)-5-(trifluoromethyl)phenol] | 500 to 3000
14 | Cc1cc([C@H](O)C2CN3CCC2CC3)nnc1-c1ccc(C(F)(F)F)cc1O (stereo partly drawn) [Compound 28A, 2-(6-((1R)-hydroxy(quinuclidin-3-yl)methyl)-4-methylpyridazin-3-yl)-5-(trifluoromethyl)phenol] | < 500

Further lines, results first:

Row | IC50 [nM] | SMILES
15 | < 500 | CN1CCC[C@@H]([C@@H](O)c2nnc(-c3ccc(C(F)(F)F)cc3O)c3c2CCC3)C1 (racemic) [Compound 43A, 2-(4-((R)-hydroxy((R)-1-methylpiperidin-3-yl)methyl)-6,7-dihydro-5H-cyclopenta[d]pyridazin-1-yl)-5-(trifluoromethyl)phenol]
16 | < 500 | Cc1c(-c2ccc(C(F)(F)F)cc2O)nnc(C(C)(O)C2CCCN(C)C2)c1C (centres unmarked) [Compound 3, 2-(6-(1-hydroxy-1-(1-methylpiperidin-3-yl)ethyl)-4,5-dimethylpyridazin-3-yl)-5-(trifluoromethyl)phenol]
17 | < 500 | Cc1c(CC2CCCN(C)C2)nnc(-c2ccc(C(F)(F)F)cc2O)c1C (centres unmarked) [Compound 5, 2-(4,5-dimethyl-6-((1-methylpiperidin-3-yl)methyl)pyridazin-3-yl)-5-(trifluoromethyl)phenol]
18 | 500 to 3000 | COC(c1nnc(-c2ccc(C(F)(F)F)cc2O)c(C)c1C)C1CCCN(C)C1 (centres unmarked) [Compound 6, 2-(6-(methoxy(1-methylpiperidin-3-yl)methyl)-4,5-dimethylpyridazin-3-yl)-5-(trifluoromethyl)phenol]
19 | < 500 | Cc1cc(O)c(-c2ccc(CC3CCCN(C)C3)nn2)c(F)c1 (centres unmarked) [Compound 7, 3-fluoro-5-methyl-2-(6-((1-methylpiperidin-3-yl)methyl)pyridazin-3-yl)phenol]
20 | < 500 | Cc1cc(O)c(-c2ccc(C(O)C3CCCN(C)C3)nn2)c(F)c1 (centres unmarked) [Compound 8, 3-fluoro-2-(6-(hydroxy(1-methylpiperidin-3-yl)methyl)pyridazin-3-yl)-5-methylphenol]
21 | < 500 | CN1CCCC(C(O)c2nnc(-c3ccc(C(F)(F)F)cc3O)c3ccccc23)C1 (centres unmarked) [Compound 9, 2-(4-(hydroxy(1-methylpiperidin-3-yl)methyl)phthalazin-1-yl)-5-(trifluoromethyl)phenol]
22 | 3000 to 10000 | Cc1cc(C(O)c2cccnc2)nnc1-c1ccc(C(F)(F)F)cc1O (centres unmarked) [Compound 10, 2-(6-(hydroxy(pyridin-3-yl)methyl)-4-methylpyridazin-3-yl)-5-(trifluoromethyl)phenol]
23 | < 500 | Cc1cc(C(O)C2CCCN(C)C2)nnc1-c1ccc(C(F)(F)F)cc1O (centres unmarked) [Compound 11, 2-(6-(hydroxy(1-methylpiperidin-3-yl)methyl)-4-methylpyridazin-3-yl)-5-(trifluoromethyl)phenol]
24 | 500 to 3000 | Cc1cc(-c2ccc(C(F)(F)F)cc2O)nnc1C(O)C1CCCN(C)C1 (centres unmarked) [Compound 12, 2-(6-(hydroxy(1-methylpiperidin-3-yl)methyl)-5-methylpyridazin-3-yl)-5-(trifluoromethyl)phenol]
25 | 500 to 3000 | Cc1cc(C(=O)c2cccnc2)nnc1-c1ccc(C(F)(F)F)cc1O [Compound 13, (6-(2-hydroxy-4-(trifluoromethyl)phenyl)-5-methylpyridazin-3-yl)(pyridin-3-yl)methanone]
26 | < 500 | Cc1cc(C(C)(O)C2CCCN(C)C2)nnc1-c1ccc(C(F)(F)F)cc1O (centres unmarked) [Compound 15, 2-(6-(1-hydroxy-1-(1-methylpiperidin-3-yl)ethyl)-4-methylpyridazin-3-yl)-5-(trifluoromethyl)phenol]
27 | < 500 | Cc1cc([C@H](O)[C@H]2CCCN(C)C2)nnc1-c1ccc(C(F)(F)F)cc1O [Compound 17C, 2-(6-((R)-hydroxy((S)-1-methylpiperidin-3-yl)methyl)-4-methylpyridazin-3-yl)-5-(trifluoromethyl)phenol]
28 | < 500 | [2H][C@@](O)(c1cc(C)c(-c2ccc(C(F)(F)F)cc2O)nn1)[C@@H]1CCCN(C)C1 [Compound 18, 2-(6-((S)-hydroxy((R)-1-methylpiperidin-3-yl)methyl-d)-4-methylpyridazin-3-yl)-5-(trifluoromethyl)phenol]
29 | < 500 | Cc1cc(C)c(-c2ccc(C(O)C3CCCN(C)C3)nn2)c(O)c1 (centres unmarked) [Compound 19, 2-(6-(hydroxy(1-methylpiperidin-3-yl)methyl)pyridazin-3-yl)-3,5-dimethylphenol]
30 | 3000 to 10000 | Oc1cc(C(F)(F)F)ccc1-c1ccc(CC2(O)CCCNC2)nn1 (centres unmarked) [Compound 21, 3-((6-(2-hydroxy-4-(trifluoromethyl)phenyl)pyridazin-3-yl)methyl)piperidin-3-ol]
31 | < 500 | CC(c1nnc(-c2ccc(C(F)(F)F)cc2O)c2ccccc12)C1CCCNC1 (centres unmarked) [Compound 22, 2-(4-(1-(piperidin-3-yl)ethyl)phthalazin-1-yl)-5-(trifluoromethyl)phenol]
32 | < 500 | Cc1cc([C@H](O)[C@@H]2CCCN(C3CC3)C2)nnc1-c1ccc(C(F)(F)F)cc1O [Compound 25, 2-(6-((R)-((R)-1-cyclopropylpiperidin-3-yl)(hydroxy)methyl)-4-methylpyridazin-3-yl)-5-(trifluoromethyl)phenol]
33 | 3000 to 10000 | Cc1cc([C@@H](O)[C@]2(C)CCCN(C)C2)nnc1-c1ccc(C(F)(F)F)cc1O [Compound 27B, 2-(6-((S)-((R)-1,3-dimethylpiperidin-3-yl)(hydroxy)methyl)-4-methylpyridazin-3-yl)-5-(trifluoromethyl)phenol]

Same assay, conditions: fresh human whole blood; compound 0.5 h, 100 ng/mL LPS 3.5 h at 37° C., 5 mM ATP 45 min; IL-1b in supernatant by ELISA

Row | SMILES | IC50 [nM]
34 | CN1CCC[C@@H]([C@@H](O)c2nnc(-c3ccc(C(F)(F)F)cc3O)c3c2CCC3)C1 (racemic) [Compound 43B, 2-(4-((R/S)-hydroxy((R/S)-1-methylpiperidin-3-yl)methyl)-6,7-dihydro-5H-cyclopenta[d]pyridazin-1-yl)-5-(trifluoromethyl)phenol] | 500 to 3000
35 | CN1CCC[C@@H]([C@@H](O)c2nnc(-c3ccc(C(F)(F)F)cc3O)c3c2CCC3)C1 (racemic) [Compound 44, 2-(4-((R)-hydroxy((R)-1-methylpiperidin-3-yl)methyl)-6,7-dihydro-5H-cyclopenta[d]pyridazin-1-yl)-5-(trifluoromethyl)phenol] | < 500
